Laboratory results taken from patent publication US20250092353A1, “COMMENSAL FUNGUS AND USES THEREOF” (YEDA RESEARCH AND DEVELOPMENT CO. LTD., priority 2022, published 2025).

How the values were obtained:
Type in all cases: in vivo
[1] = system: neutrophils, classical and non-classical monocytes; experiment: Flow cytometric analysis of myeloid blood cell compartment of colonized mice; conditions: Abx-treated mice, 4 weeks colonized
Text: (§1) FIGS. 4A-4F include graphs showing humoral and cellular immune responses to C. albicans and Kazachstania sp. (4A) Flow cytometric analysis of myeloid blood cell compartment of mice 4 weeks colonized with C. albicans or K. weizmannii. Neutrophils, classical and non-classical monocytes are defined as Ly6G+CD 115−, Ly6C+CD 115+, and […], respectively. N=8-21 mice, pooled from 3 independent experiments. Gating strategy, left, results, right. (4B) Flow cytometric analysis of humoral anti-fungal reactivity. Gating strategy for the determination of serum immunoglobulin binding to cultured C. albicans or K. weizmannii. (4C) Anti-C. albicans and K. weizmannii IgA and IgG serum reactivity of single-colonized animals, measured as shown in (4B). Note that most but not all animals harbor cross-reactive sera. (4D) Representative gating strategy of RORγt+ T cells (left); percentage of RORγt+ cells among TCRβ CD4+ T cells 5 weeks upon C. albicans or K. weizmannii colonization, n=3-5 mice per group, 3 independent experiments (right). […] EC damage was assessed using the LDH assay as described in (Allert et al., 2018). […]
(§2) Methods adhered to published guidelines (Cossarizza et al., 2019). Flow cytometry samples were recorded on BD LSR Fortessa 4 lasers or Cytek Aurora followed by data analysis using the FlowJo software (Treestar).

C. albicans = experiment: Candidiasis in immunosuppressed C. albicans-colonized mice given Kazachstania-supplemented drinking water
Protocol: Stably fungal-colonized mice were 5×s.c injected with 225 mg kg-1 with cortisone 21-acetate, following the scheme of injection every other day as described previously (Solis and Filler, 2012). Mice were monitored for weight loss. Following sacrifice, organs and feces were collected for histological examination, flow cytometry and fungal cultivations). If the weight dropped […], mice were sacrificed according to IACUC protocol.
For enumerating the number of recoverable C. albicans and K. weizmannii colony forming units, individual fecal pellets or each tissue from mice was sterilely dissected, weighed, and homogenized in sterile DDW. Serial dilutions on the organ homogenate were spread onto YPD media plates and the number of individual colonies enumerated after incubation at 37° C. for 24 hours.
Mice were euthanized and intestines, kidneys and tongue were excised and fixed overnight in 4% paraformaldehyde at 4° C. Paraffin embedding and sectioning was performed by the institutional histology unit. For immunohistochemistry of gut samples, slides were deparaffinized by 2 washes of Xylene followed by 100%, 96%, 70% EtOH and three washes with PBS. Slides were incubated for 30 minutes in 1% hydrogen peroxide in PBS at room temperature in the dark. After washing three times in PBS, slides were boiled for 10 minutes in Citric acid buffer pH 6.0 (10 mM citric acid and 0.05% Tween-20 in DDW), then washed with PBS three times. Next, slides were blocked in BP buffer (0.3% Triton X-100, 2% horse serum and 1% bovine serum albumin in PBS) for 1 h, then incubated overnight at 4° C. with a 1:200 dilution of the primary antibody (anti-Candida) in BP buffer. […] For histopathology of typical tongue or kidney fungal lesions in the mouse model of immunosuppression, paraffin sections were stained with periodic acid-Schiff (PAS) or H&E and slides were captured using a Panoramic SCAN II (3DHISTECH) and analyzed using CaseViewer software (3DHISTECH).

Th17 cells = experiment: RORγt+ Th17 cells in mesenteric and peripheral lymph nodes of colonized mice; conditions: 5 weeks colonization
Text: as §1, §2

Q: What does the source list for Kazachstania weizmannii [K. weizmannii]?
A: abundance of blood granulocytes and monocytes [1]: no significantly altered abundance of granulocytes, classical or non-classical monocytes; C. albicans in feces of colonized animals (C. albicans; Kazachstania-supplemented drinking water prior to immunosuppression): efficiently expelled C. albicans from colonized animals; weight loss and systemic yeast spread (kidney colonization) (C. albicans; immunosuppressed C. albicans-colonized animals exposed to K. weizmannii): significantly delayed the weight loss and systemic yeast spread; durability of protection (C. albicans; prolonged immunosuppressive treatment): not permanently protected; Th17 cell expansion (Th17 cells): no Th17 cell expansion was observed
